Assay results taken from patent US20140243302A1, “BRIDGED BICYCLIC COMPOUNDS FOR THE TREATMENT OF BACTERIAL INFECTIONS” (priority 2011, published 2014).
≈ marks a conversion by molar mass, not a printed value.

Test system: Staphylococcus aureus Smith
Assay: MIC assay, modified agar dilution (CLSI), S. aureus Smith
Assay type: cell-based
Details: agar dilution, 35° C., 16-20 hr, lowest concentration that completely inhibited growth; for MIC: Staphylococcus aureus, read-out: S_aureus_Smith_WT_MIC
Outline: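 Strains were spotted at about 1×10^4 CFU onto compound-containing Mueller Hinton agar (two-fold series, 128-0.001 μg/mL), horse blood 5% added for pneumococcus and enterococcus. MIC read after 16-20 hr at 35 °C, following a modified CLSI agar dilution method.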

Row | MIC [µg/mL] | SMILES | S_aureus_Smith_WT_MIC [µg/mL]
1 | 16 (≈ 29 µM) | COC(=O)N(Cc1ccc2c(n1)NC(=O)CO2)C12CCC(CCc3c(F)cnc4ccc(OC)nc34)(CC1)OC2 [Example 168, Methyl {1-[2-(3-Fluoro-6-methoxy-1,5-naphthyridin-4-yl)ethyl]-2-oxabicyclo[2.2.2]oct-4-yl}[(3-oxo-3,4-dihydro-2H-pyrido[3,2-b][1,4]oxazin-6-yl)methyl]carbamate] | 
2 | 0.125 (≈ 0.221 µM) | O=C1COc2ccc(CNC34CCC(CCc5c(F)cnc6ccc(OCC7(O)COC7)nc56)(CC3)OC4)nc2N1 [Example 170, 6-((1-(2-(3-Fluoro-6-((3-hydroxyoxetan-3-yl)methoxy)-1,5-naphthyridin-4-yl)ethyl)-2-oxabicyclo[2.2.2]octan-4-ylamino)methyl)-2H-pyrido[3,2-b][1,4]oxazin-3(4H)-one] | 
3 | 0.031 (≈ 0.0626 µM) | COc1ccc2ncc(F)c(CC(O)C34CCC(NCc5ccc6c(c5)OCCO6)(CC3)CO4)c2n1 (centres unmarked) [Example 172, 1-{4-[(2,3-Dihydro-1,4-benzodioxin-6-ylmethyl)amino]-2-oxabicyclo[2.2.2]oct-1-yl}-2-(3-fluoro-6-methoxy-1,5-naphthyridin-4-yl)ethanol] | 
4 | 0.125 (≈ 0.259 µM) | COc1ccc2ncc(F)c(CC(O)C34CCC(NC(=O)c5ccc(C)c(F)c5)(CC3)CO4)c2n1 (centres unmarked) [Example 173, 3-Fluoro-N-{1-[2-(3-fluoro-6-methoxy-1,5-naphthyridin-4-yl)-1-hydroxyethyl]-2-oxabicyclo[2.2.2]oct-4-yl}-4-methylbenzamide] | 
5 | 0.031 (≈ 0.0606 µM) | COc1nc2c(CCC34CCC(NCc5ccc6c(n5)NC(=O)CO6)(CC3)CO4)c(F)cnc2cc1F [Example 174, 6-[({1-[2-(3,7-Difluoro-6-methoxy-1,5-naphthyridin-4-yl)ethyl]-2-oxabicyclo[2.2.2]oct-4-yl}amino)methyl]-2H-pyrido[3,2-b][1,4]oxazin-3(4H)-one] | 
6 | 0.125 (≈ 0.246 µM) | COc1ccc2ncc(F)c(CCC34CCC(N(C)Cc5ccc6c(n5)NC(=O)CO6)(CC3)CO4)c2n1 [Example 176, 6-{[{1-[2-(3-Fluoro-6-methoxy-1,5-naphthyridin-4-yl)ethyl]-2-oxabicyclo[2.2.2]oct-4-yl}(methyl)amino]methyl}-2H-pyrido[3,2-b][1,4]oxazin-3(4H)-one] | 
7 | 1 (≈ 2.02 µM) | COc1ccc2ncc(F)c(CCC34CCC(NCc5cc6c(nn5)OCC(=O)N6)(CC3)CO4)c2n1 [Example 177, 3-[({1-[2-(3-Fluoro-6-methoxy-1,5-naphthyridin-4-yl)ethyl]-2-oxabicyclo[2.2.2]oct-4-yl}amino)methyl]-5H-pyridazino [3,4-b][1,4]oxazin-6(7H)-one] | 
8 | 0.063 (≈ 0.128 µM) | COc1ccc2ncc(F)c(CCC34CCC(NCc5ccc6ncc(=O)[nH]c6n5)(CC3)CO4)c2n1 [Example 178, 6-[({1-[2-(3-Fluoro-6-methoxy-1,5-naphthyridin-4-yl)ethyl]-2-oxabicyclo[2.2.2]oct-4-yl}amino)methyl]pyrido[2,3-b]pyrazin-3(4H)-one] | 

The remaining lines, values behind:

Row | SMILES | MIC [µg/mL] | S_aureus_Smith_WT_MIC [µg/mL]
9 | COc1ccc2ncc(F)c(CCC34CCC(NCc5cc6c(cn5)OCC(=O)N6)(CC3)CO4)c2n1 [Example 148, 7-((1-(2-(3-Fluoro-6-methoxy-1,5-naphthyridin-4-yl)ethyl)-2-oxabicyclo[2.2.2]octan-4-ylamino)methyl)-1H-pyrido[3,4-b][1,4]oxazin-2(3H)-one] |  | 0.0310
10 | COc1ccc2ncc(F)c(CC(O)C34CCC(NCc5cc6c(cn5)OCC(=O)N6)(CC3)CO4)c2n1 (centres unmarked) [Example 149, 7-((1-(2-(3-Fluoro-6-methoxy-1,5-naphthyridin-4-yl)-1-hydroxyethyl)-2-oxabicyclo[2.2.2]octan-4-ylamino)methyl)-1H-pyrido[3,4-b][1,4]oxazin-2(3H)-one] | 0.063 (≈ 0.124 µM) | 
11 | COc1cc(OC)c2nccc(CCC34CCC(NCc5ccc6c(n5)NC(=O)CO6)(CC3)CO4)c2n1 [Example 150, 6-((1-(2-(6,8-Dimethoxy-1,5-naphthyridin-4-yl)ethyl)-2-oxabicyclo[2.2.2]octan-4-ylamino)methyl)-2H-pyrido[3,2-b][1,4]oxazin-3(4H)-one] | 0.5 (≈ 0.989 µM) | 
12 | COc1ccc2ccc(F)c(CCC34CCC(NCc5ccc6c(n5)NC(=O)CO6)(CC3)CO4)c2n1 [Example 153, 6-((1-(2-(7-Fluoro-2-methoxyquinolin-8-yl)ethyl)-2-oxabicyclo[2.2.2]octan-4-ylamino)methyl)-2H-pyrido[3,2-b][1,4]oxazin-3(4H)-one] | 0.063 (≈ 0.128 µM) | 
13 | CN(C)c1nc2c(CCC34CCC(NCc5ccc6c(n5)NC(=O)CO6)(CC3)CO4)ccnc2cc1F [Example 154, 6-((1-(2-(6-(Dimethylamino)-7-fluoro-1,5-naphthyridin-4-yl)ethyl)-2-oxabicyclo[2.2.2]octan-4-ylamino)methyl)-2H-pyrido[3,2-b][1,4]oxazin-3(4H)-one] | 1 (≈ 1.97 µM) | 
14 | COc1ccc2ncc(F)c(CCC34CCC(NCc5ccc6c(n5)NC(=O)CS6)(CC3)CO4)c2n1 [Example 155, 6-((1-(2-(3-Fluoro-6-methoxy-1,5-naphthyridin-4-yl)ethyl)-2-oxabicyclo[2.2.2]octan-4-ylamino)methyl)-2H-pyrido[3,2-b][1,4]thiazin-3(4H)-one] | 0.016 (≈ 0.0314 µM) | 
15 | COc1ccc2ncc(F)c(CC(O)C34CCC(NCc5ccc6c(n5)NC(=O)CS6)(CC3)CO4)c2n1 (centres unmarked) [Example 156, 6-((1-(2-(3-Fluoro-6-methoxy-1,5-naphthyridin-4-yl)-1-hydroxyethyl)-2-oxabicyclo[2.2.2]octan-4-ylamino)methyl)-2H-pyrido[3,2-b][1,4]thiazin-3(4H)-one] | 0.063 (≈ 0.12 µM) | 
16 | COc1ccc2ncc(F)c(CC(F)C34CCC(NCc5ccc6c(n5)NC(=O)CO6)(CC3)CO4)c2n1 (centres unmarked) [Example 157a, 6-[({1-[1-Fluoro-2-(3-fluoro-6-methoxy-1,5-naphthyridin-4-yl)ethyl]-2-oxabicyclo[2.2.2]oct-4-yl}amino)methyl]-2H-pyrido[3,2-b][1,4]oxazin-3(4H)-one] | 2 (≈ 3.91 µM) | 
17 | O=C1COc2ccc(CNC34CCC(C(O)Cc5c(F)cnc6ccc(OCCCO)nc56)(CC3)OC4)nc2N1 (centres unmarked) [Example 158, 6-{[(1-{2-[3-Fluoro-6-(3-hydroxypropoxy)-1,5-naphthyridin-4-yl]-1-hydroxyethyl}-2-oxabicyclo[2.2.2]oct-4-yl)amino]methyl}-2H-pyrido[3,2-b][1,4]oxazin-3(4H)-one] | 0.125 (≈ 0.226 µM) | 
18 | N#Cc1cnc2ccc(=O)n(CC(O)C34CCC(NCc5ccc6c(n5)NC(=O)CO6)(CC3)CO4)c2c1 (centres unmarked) [Example 162, 5-(2-Hydroxy-2-(4-((3-oxo-3,4-dihydro-2H-pyrido[3,2-b][1,4]oxazin-6-yl)methylamino)-2-oxabicyclo[2.2.2]octan-1-yl)ethyl)-6-oxo-5,6-dihydro-1,5-naphthyridine-3-carbonitrile] | 2 (≈ 3.98 µM) | 
19 | COc1ccc2ncc(F)c(CCC34CCC(NCc5ccc6c(n5)NS(=O)(=O)CO6)(CC3)CO4)c2n1 [Example 163, 7-((1-(2-(3-Fluoro-6-methoxy-1,5-naphthyridin-4-yl)ethyl)-2-oxabicyclo[2.2.2]octan-4-ylamino)methyl)-1H-pyrido[2,3-e][1,3,4]oxathiazine-2,2-dioxide] | 4 (≈ 7.55 µM) | 
20 | N[C@H]1C(=O)N[C@@H]1COc1ccc2ncc(F)c(CCC34CCC(NCc5ccc6c(n5)NC(=O)CO6)(CC3)CO4)c2n1 [Example 164, 6-((1-(2-(6-(((2S,3R)-3-Amino-4-oxoazetidin-2-yl)methoxy)-3-fluoro-1,5-naphthyridin-4-yl)ethyl)-2-oxabicyclo[2.2.2]octan-4-ylamino)methyl)-2H-pyrido[3,2-b][1,4]oxazin-3(4H)-one] | 0.5 (≈ 0.866 µM) | 
21 | NCC(O)COc1ccc2ncc(F)c(CCC34CCC(NCc5ccc6c(n5)NC(=O)CO6)(CC3)CO4)c2n1 (centres unmarked) [Example 165, 6-{[(1-{2-[6-(3-Amino-2-hydroxypropoxy)-3-fluoro-1,5-naphthyridin-4-yl]ethyl}-2-oxabicyclo[2.2.2]oct-4-yl)amino]methyl}-2H-pyrido[3,2-b][1,4]oxazin-3(4H)-one] | 2 (≈ 3.62 µM) | 
22 | O=C1COc2ccc(CNC34CCC(CCc5c(F)cnc6ccc(OC7CC(O)CC(O)C7)nc56)(CC3)OC4)nc2N1 (centres unmarked) [Example 166, 6-({[1-(2-{6-[(3,5-Dihydroxycyclohexyl)oxy]-3-fluoro-1,5-naphthyridin-4-yl}ethyl)-2-oxabicyclo[2.2.2]oct-4-yl]amino}methyl)-2H-pyrido[3,2-b][1,4]oxazin-3(4H)-one] | 0.5 (≈ 0.842 µM) | 
23 | COc1ccc2ncc(F)c(CC(OCCO)C34CCC(NCc5ccc6c(n5)NC(=O)CO6)(CC3)CO4)c2n1 (centres unmarked) [Example 167, 6-[({1-[2-(3-Fluoro-6-methoxy-1,5-naphthyridin-4-yl)-1-(2-hydroxyethoxy)ethyl]-2-oxabicyclo[2.2.2]oct-4-yl}amino)methyl]-2H-pyrido[3,2-b][1,4]oxazin-3(4H)-one] | 2 (≈ 3.61 µM) | 
24 | O=C1COc2ccc(CNC34CCC(CCc5c(F)cnc6ccc(OC[C@H]7C[C@@H](O)[C@@H](O)C7)nc56)(CC3)OC4)nc2N1 [Example 169, 6-((1-(2-(6-(((1r,3R,4S)-3,4-Dihydroxycyclopentyl)methoxy)-3-fluoro-1,5-naphthyridin-4-yl)ethyl)-2-oxabicyclo[2.2.2]octan-4-ylamino)methyl)-2H-pyrido[3,2-b][1,4]oxazin-3(4H)-one] | 0.063 (≈ 0.106 µM) | 
25 | Cl.O=C1COc2ccc(CNC34CCC(C(O)Cc5c(F)cnc6ccc(OCCO)nc56)(CC3)OC4)nc2N1 (centres unmarked) [Example 171, 6-((1-(2-(3-Fluoro-6-(2-hydroxyethoxy)-1,5-naphthyridin-4-yl)-1-hydroxyethyl)-2-oxabicyclo[2.2.2]octan-4-ylamino)methyl)-2H-pyrido[3,2-b][1,4]oxazin-3(4H)-one Hydrochloride] | 0.125 | 
26 | CC(C)(O)CCOc1ccc2ncc(F)c(CCC34CCC(NCc5ccc6c(n5)NC(=O)CO6)(CC3)CO4)c2n1 [Example 175, 6-{[(1-{2-[3-Fluoro-6-(3-hydroxy-3-methylbutoxy)-1,5-naphthyridin-4-yl]ethyl}-2-oxabicyclo[2.2.2]oct-4-yl)amino]methyl}-2H-pyrido[3,2-b][1,4]oxazin-3(4H)-one] | 1 (≈ 1.77 µM) | 
